Laboratory results reported in the OligoGym collection.
Where “and” joins values, the source holds several entries; their conditions need not be identical. Equal values may be shown once. HELM strings list units from the 5' end as sugar, base in round brackets, then linkage (d deoxyribose, r ribose, m 2'-O-methyl, p phosphodiester). Strings are as the collection lists them, not checked against the first reports. ss, as = sense and antisense strand; [lna] = locked nucleic acid (LNA); [fl2r] = 2'-fluoro

Conditions: siRNA
Further: test system not given here.

Substance	target mRNA knockdown
RNA1{r(C)p.r(U)p.r(C)p.r(U)p.r(C)p.r(C)p.[fl2r](U)p.r(A)p.r(C)p.r(C)p.r(U)p.[fl2r](U)p.r(C)p.r(U)p.r(C)p.r(C)p.[fl2r](U)p.r(C)p.r(U)p.r(T)p.r(T)}|RNA2{r(A)p.r(G)p.r(A)p.r(G)p.r(G)p.r(A)p.r(G)p.r(A)p.r(A)p.r(G)p.r(G)p.[fl2r](U)p.r(A)p.r(G)p.r(G)p.r(A)p.r(G)p.r(A)p.r(G)p.r(T)p.r(T)}$$$RNA1{StrandType:ss}|RNA2{StrandType:as}$	73%
RNA1{r(C)p.r(U)p.r(C)p.r(U)p.r(C)p.r(C)p.r(U)p.[fl2r](A)p.r(C)p.r(C)p.r(U)p.r(U)p.r(C)p.r(U)p.r(C)p.r(C)p.r(U)p.r(C)p.r(U)p.r(T)p.r(T)}|RNA2{r(A)p.r(G)p.r(A)p.r(G)p.r(G)p.r(A)p.r(G)p.r(A)p.r(A)p.r(G)p.r(G)p.r(U)p.r(A)p.r(G)p.r(G)p.r(A)p.r(G)p.r(A)p.r(G)p.r(T)p.r(T)}$$$RNA1{StrandType:ss}|RNA2{StrandType:as}$	78%
RNA1{r(C)p.r(U)p.r(C)p.r(U)p.r(G)p.r(G)p.r(C)p.r(C)p.r(U)p.r(U)p.r(U)p.r(C)p.r(U)p.r(C)p.r(U)p.r(C)p.m(U)p.r(A)p.r(G)p.r(T)p.r(T)}|RNA2{r(C)p.r(U)p.r(A)p.r(G)p.r(A)p.r(G)p.r(A)p.r(G)p.r(A)p.r(A)p.r(A)p.r(G)p.r(G)p.r(C)p.r(C)p.r(A)p.r(G)p.r(A)p.r(G)p.r(T)p.r(T)}$$$RNA1{StrandType:ss}|RNA2{StrandType:as}$	47%
RNA1{r(C)p.r(U)p.r(G)p.r(A)p.r(C)p.r(C)p.r(G)p.r(G)p.r(A)p.r(A)p.r(G)p.r(C)p.r(G)p.r(C)p.r(U)p.m(U)p.r(A)p.r(A)p.r(A)p.r(T)p.r(T)}|RNA2{r(U)p.r(U)p.m(U)p.r(A)p.r(A)p.r(G)p.r(C)p.r(G)p.r(C)p.r(U)p.r(U)p.r(C)p.r(C)p.r(G)p.r(G)p.r(U)p.r(C)p.r(A)p.r(G)p.r(T)p.r(T)}$$$RNA1{StrandType:ss}|RNA2{StrandType:as}$	86%
RNA1{r(C)p.r(U)p.r(G)p.r(G)p.r(U)p.r(A)p.r(A)p.r(A)p.r(G)p.r(C)p.r(A)p.r(U)p.r(U)p.r(C)p.r(A)p.r(G)p.r(U)p.r(A)p.r(U)p.d(T)p.d(T)}|RNA2{r(A)p.r(U)p.r(A)p.r(C)p.r(U)p.r(G)p.r(A)p.r(A)p.r(U)p.r(G)p.r(C)p.r(U)p.r(U)p.r(U)p.r(A)p.r(C)p.r(C)p.r(A)p.r(G)p.d(T)p.d(T)}$$$RNA1{StrandType:ss}|RNA2{StrandType:as}$	82%
RNA1{r(C)p.r(U)p.r(U)p.r(A)p.r(C)p.r(G)p.r(C)p.r(U)p.r(C)p.r(U)p.r(G)p.r(U)p.r(A)p.r(C)p.r(U)p.r(U)p.r(C)p.r(G)p.r(A)p.d(T)p.d(T)}|RNA2{r(U)p.r(C)p.r(G)p.r(A)p.r(A)p.r(G)p.r(U)p.r(A)p.r(C)p.r(U)p.r(C)p.r(A)p.r(G)p.r(C)p.r(G)p.r(U)p.r(A)p.r(A)p.r(G)p.d(T)p.d(T)}$$$RNA1{StrandType:ss}|RNA2{StrandType:as}$	92% and 94%
RNA1{r(C)p.r(U)p.r(U)p.r(A)p.r(C)p.r(G)p.r(C)p.r(U)p.r(G)p.r(A)p.r(G)p.r(U)p.r(A)p.r(C)p.r(U)p.r(U)p.r(C)p.r(G)p.r(A)p.[lna](T)p.[lna](T)}|RNA2{[lna](T)p.r(C)p.r(G)p.r(A)p.r(A)p.r(G)p.r(U)p.r(A)p.r(C)p.r(U)p.r(C)p.r(A)p.r(G)p.r(C)p.r(G)p.r(U)p.r(A)p.r(A)p.r(G)p.[lna](T)p.[lna](T)}$$$RNA1{StrandType:ss}|RNA2{StrandType:as}$	27%
RNA1{r(C)p.r(U)p.r(U)p.r(A)p.r(C)p.r(G)p.r(C)p.r(U)p.r(G)p.r(A)p.r(G)p.r(U)p.r(A)p.r(C)p.r(U)p.r(U)p.r(C)p.r(G)p.r(A)p.[lna](T)p.[lna](T)}|RNA2{r(U)p.r(C)p.r(G)p.r(A)p.r(A)p.r(G)p.r(U)p.r(A)p.r(C)p.r(U)p.r(C)p.r(A)p.r(G)p.r(C)p.r(G)p.r(U)p.r(A)p.r(A)p.r(G)p.[lna](T)p.[lna](T)}$$$RNA1{StrandType:ss}|RNA2{StrandType:as}$	93% and 92%
RNA1{r(C)p.r(U)p.r(U)p.r(A)p.r(C)p.r(G)p.r(C)p.r(U)p.r(G)p.r(A)p.r(G)p.r(U)p.r(A)p.r(C)p.r(U)p.r(U)p.r(C)p.r(G)p.r(A)p.[lna](T)p.[lna](T)}|RNA2{r(U)p.r(C)p.r(G)p.r(A)p.r(A)p.r(G)p.r(U)p.r(A)p.r(C)p.r(U)p.r(C)p.r(A)p.r(G)p.r(C)p.r(G)p.r(U)p.r(A)p.r(A)p.r(G)p.d(T)p.d(T)}$$$RNA1{StrandType:ss}|RNA2{StrandType:as}$	96%
RNA1{r(C)p.r(U)p.r(U)p.r(A)p.r(C)p.r(G)p.r(C)p.r(U)p.r(G)p.r(A)p.r(G)p.r(U)p.r(A)p.r(C)p.r(U)p.r(U)p.r(C)p.r(G)p.r(A)p.[lna](T)p.[lna](T)}|RNA2{r(U)p.r(C)p.r(G)p.r(A)p.r(A)p.r(G)p.r(U)p.r(A)p.r(C)p.r(U)p.r(C)p.r(A)p.r(G)p.r(C)p.r(G)p.r(U)p.r(A)p.r(A)p.r(G)p.r(T)p.r(T)}$$$RNA1{StrandType:ss}|RNA2{StrandType:as}$	97%
RNA1{r(C)p.r(U)p.r(U)p.r(A)p.r(C)p.r(G)p.r(C)p.r(U)p.r(G)p.r(A)p.r(G)p.r(U)p.r(A)p.r(C)p.r(U)p.r(U)p.r(C)p.r(G)p.r(A)p.d(T)p.d(T)}|RNA2{[lna](T)p.r(C)p.r(G)p.r(A)p.r(A)p.r(G)p.r(U)p.[lna](A)p.r(C)p.r(U)p.[lna](C)p.r(A)p.r(G)p.r(C)p.r(G)p.r(U)p.[lna](A)p.r(A)p.r(G)p.[lna](T)p.[lna](T)}$$$RNA1{StrandType:ss}|RNA2{StrandType:as}$	15%
RNA1{r(C)p.r(U)p.r(U)p.r(A)p.r(C)p.r(G)p.r(C)p.r(U)p.r(G)p.r(A)p.r(G)p.r(U)p.r(A)p.r(C)p.r(U)p.r(U)p.r(C)p.r(G)p.r(A)p.d(T)p.d(T)}|RNA2{[lna](T)p.r(C)p.r(G)p.r(A)p.r(A)p.r(G)p.r(U)p.r(A)p.r(C)p.r(U)p.r(C)p.r(A)p.r(G)p.r(C)p.r(G)p.r(U)p.r(A)p.r(A)p.r(G)p.[lna](T)p.[lna](T)}$$$RNA1{StrandType:ss}|RNA2{StrandType:as}$	55%
RNA1{r(C)p.r(U)p.r(U)p.r(A)p.r(C)p.r(G)p.r(C)p.r(U)p.r(G)p.r(A)p.r(G)p.r(U)p.r(A)p.r(C)p.r(U)p.r(U)p.r(C)p.r(G)p.r(A)p.d(T)p.d(T)}|RNA2{r(U)p.r(C)p.r(G)p.r(A)p.r(A)p.r(G)p.r(U)p.r(A)p.r(C)p.[lna](T)p.r(C)p.r(A)p.r(G)p.r(C)p.r(G)p.r(U)p.r(A)p.r(A)p.r(G)p.[lna](T)p.[lna](T)}$$$RNA1{StrandType:ss}|RNA2{StrandType:as}$	52%
RNA1{r(C)p.r(U)p.r(U)p.r(A)p.r(C)p.r(G)p.r(C)p.r(U)p.r(G)p.r(A)p.r(G)p.r(U)p.r(A)p.r(C)p.r(U)p.r(U)p.r(C)p.r(G)p.r(A)p.d(T)p.d(T)}|RNA2{r(U)p.r(C)p.r(G)p.r(A)p.r(A)p.r(G)p.r(U)p.r(A)p.r(C)p.[lna](T)p.r(C)p.r(A)p.r(G)p.r(C)p.r(G)p.r(U)p.r(A)p.r(A)p.r(G)p.[lna](T)p.r(T)}$$$RNA1{StrandType:ss}|RNA2{StrandType:as}$	93%
RNA1{r(C)p.r(U)p.r(U)p.r(A)p.r(C)p.r(G)p.r(C)p.r(U)p.r(G)p.r(A)p.r(G)p.r(U)p.r(A)p.r(C)p.r(U)p.r(U)p.r(C)p.r(G)p.r(A)p.d(T)p.d(T)}|RNA2{r(U)p.r(C)p.r(G)p.r(A)p.r(A)p.r(G)p.r(U)p.r(A)p.r(C)p.r(U)p.r(C)p.r(A)p.r(G)p.r(C)p.r(G)p.r(U)p.r(A)p.r(A)p.r(G)p.[lna](T)p.[lna](T)}$$$RNA1{StrandType:ss}|RNA2{StrandType:as}$	92%
RNA1{r(C)p.r(U)p.r(U)p.r(A)p.r(C)p.r(G)p.r(C)p.r(U)p.r(G)p.r(A)p.r(G)p.r(U)p.r(A)p.r(C)p.r(U)p.r(U)p.r(C)p.r(G)p.r(A)p.r(T)p.r(T)}|RNA2{[lna](T)p.r(C)p.r(G)p.r(A)p.r(A)p.r(G)p.[lna](T)p.r(A)p.r(C)p.[lna](T)p.r(C)p.r(A)p.r(G)p.r(C)p.r(G)p.[lna](T)p.r(A)p.r(A)p.r(G)p.[lna](T)p.[lna](T)}$$$RNA1{StrandType:ss}|RNA2{StrandType:as}$	19%
RNA1{r(C)p.r(U)p.r(U)p.r(A)p.r(C)p.r(G)p.r(C)p.r(U)p.r(G)p.r(A)p.r(G)p.r(U)p.r(A)p.r(C)p.r(U)p.r(U)p.r(C)p.r(G)p.r(A)p.r(T)p.r(T)}|RNA2{[lna](T)p.r(C)p.r(G)p.r(A)p.r(A)p.r(G)p.r(U)p.r(A)p.r(C)p.r(U)p.r(C)p.r(A)p.r(G)p.r(C)p.r(G)p.r(U)p.r(A)p.r(A)p.r(G)p.[lna](T)p.[lna](T)}$$$RNA1{StrandType:ss}|RNA2{StrandType:as}$	57%
RNA1{r(C)p.r(U)p.r(U)p.r(A)p.r(C)p.r(G)p.r(C)p.r(U)p.r(G)p.r(A)p.r(G)p.r(U)p.r(A)p.r(C)p.r(U)p.r(U)p.r(C)p.r(G)p.r(A)p.r(T)p.r(T)}|RNA2{r(T)p.r(C)p.[lna](G)p.r(A)p.r(A)p.r(G)p.r(U)p.r(A)p.r(C)p.r(U)p.r(C)p.r(A)p.r(G)p.r(C)p.r(G)p.r(U)p.r(A)p.r(A)p.r(G)p.[lna](T)p.[lna](T)}$$$RNA1{StrandType:ss}|RNA2{StrandType:as}$	90%
RNA1{r(C)p.r(U)p.r(U)p.r(A)p.r(C)p.r(G)p.r(C)p.r(U)p.r(G)p.r(A)p.r(G)p.r(U)p.r(A)p.r(C)p.r(U)p.r(U)p.r(C)p.r(G)p.r(A)p.r(T)p.r(T)}|RNA2{r(T)p.r(C)p.r(G)p.[lna](A)p.r(A)p.r(G)p.r(U)p.r(A)p.r(C)p.r(U)p.r(C)p.r(A)p.r(G)p.r(C)p.r(G)p.r(U)p.r(A)p.r(A)p.r(G)p.[lna](T)p.[lna](T)}$$$RNA1{StrandType:ss}|RNA2{StrandType:as}$	91%
RNA1{r(C)p.r(U)p.r(U)p.r(A)p.r(C)p.r(G)p.r(C)p.r(U)p.r(G)p.r(A)p.r(G)p.r(U)p.r(A)p.r(C)p.r(U)p.r(U)p.r(C)p.r(G)p.r(A)p.r(T)p.r(T)}|RNA2{r(T)p.r(C)p.r(G)p.r(A)p.[lna](A)p.r(G)p.r(U)p.r(A)p.r(C)p.r(U)p.r(C)p.r(A)p.r(G)p.r(C)p.r(G)p.r(U)p.r(A)p.r(A)p.r(G)p.[lna](T)p.[lna](T)}$$$RNA1{StrandType:ss}|RNA2{StrandType:as}$	88%
